Experimental data: PubChem BioAssay AID504539 (Broad Institute, 2011)
Calls of active or inactive are those of the source. How the calls were made is not given here.

What was measured:
[1] = prion protein 5' UTR mRNA inhibitors – cell-based, plate reader, cherry-picked samples, dose response (AID 504539); conditions: Cell-based prion protein 5' UTR reporter, plate reader; at 5 µM (top of the series)
[2] = test system: Cell-based prion protein 5' UTR reporter, plate reader; test: as above

Row | Compound | activity change, negative = inhibition [1] | AC50 [2]
1 | Cn1nnc2cc(C(=O)NC3CCCCC3)ccc21 | 46.3% (inactive) | –
2 | CCOc1ccc(C2=Nn3c(nnc3-c3ccccc3OC)SC2)cc1 | -38.1% (inactive) | –
3 | COc1ccc(Nc2nc(-c3c(C)nc4ncccn34)cs2)cc1 | -31.6% (inactive) | –
4 | Cc1ccc(S(=O)(=O)Nc2nc3ccccc3s2)cc1[N+](=O)[O-] | 25.2% (inactive) | –
5 | N#Cc1cn(C2OC(CO)C(O)C2O)c2ncnc(N)c12 (centres undefined) | -30.1% (inactive) | –
6 | O=C(NNC(=O)c1cccs1)c1ccco1 | 6.33% (inactive) | –
7 | CC1=C(C(=O)Nc2ccc(CC(=O)NCc3ccc(OC(C)C)cc3)cc2)SCCO1 | – | 974 nM
8 | O=C1N(c2ccccc2)C[C@@H]2C[C@@H](c3cc4ccccc4o3)N3CCC[C@@]123 | – | 511 nM
9 | COc1ccc(/C=N/NC(=O)c2[nH]c3ccc(Br)cc3c2-c2ccccc2)cc1 | – | 209 nM
10 | Cc1c(C(=O)OCC(C)C)[nH]c2c1C(=O)CC(c1ccco1)C2 (centres undefined) | – | 1260 nM
11 | COc1cc(C2c3cc4c(cc3OC(NNC(N)=O)C2C)OCO4)cc(OC)c1OC (centres undefined) | – | 822 nM
12 | O=C(NN1C(=O)C2C3C=CC(C4CC34)C2C1=O)c1ccc(Br)cc1 (centres undefined) | 108% (inactive) | –
13 | CCN1C/C(=C\c2cccc([N+](=O)[O-])c2)C(=O)/C(=C/c2cccc([N+](=O)[O-])c2)C1 | – | 2350 nM
14 | C=C1CC(Cn2cc(Br)c(=O)[nH]c2=O)(c2ccc(-c3ccccc3)cc2)OC1=O (centres undefined) | – | 1160 nM
15 | S=C(Nc1ccccc1)Nc1ccc(OCc2ccc(Cl)cc2Cl)cc1 | – | 355 nM
16 | COC(=O)C12OCC34C(CC5C(C)=C(O)C(=O)CC5(C)C3C(O)C1O)OC(=O)C(OC(=O)/C=C(\C)C(C)C)C24 (centres undefined) | – | < 38 nM
17 | O=C1/C(=C\c2ccc([N+](=O)[O-])cc2)CS(=O)(=O)C/C1=C/c1ccc([N+](=O)[O-])cc1 | – | 2060 nM
18 | COc1ccc(OC)c(C2C3=C(COC3=O)Nc3cc4c(cc32)OCO4)c1 (centres undefined) | – | 197 nM
19 | CC(=O)O[C@H]1[C@H]2O[C@]23[C@@H]2CC[C@]4(O)C[C@@H](O)CC[C@]4(C)C2CC[C@]3(C)[C@H]1c1ccc(=O)oc1 (some centres undefined) | – | 120 nM
20 | COC(=O)c1nn(-c2ccc3c(c2)CCN3C(C)=O)cc1O | – | 300 nM
21 | CC(/C=C1\SC(=O)N(CCCC(=O)O)C1=O)=C\c1ccccc1 | – | 162 nM
22 | O=[N+]([O-])c1nn(-c2ccc3c(c2)OCCO3)n(O)c1=Nc1ccccc1 | – | 180 nM
23 | CC(=Nc1ccccc1)C1=C(O)C(Cc2ccc(O)cc2)NC1=O (centres undefined) | – | 379 nM

Row | Compound | activity change, negative = inhibition [1] | AC50 [2]
24 | C[C@H]1CCC/C=C/C2C[C@H](O)CC2[C@H](O)/C=C/C(=O)O1 (some centres undefined) | – | 40 nM
25 | COCCn1c(C)cc(C(=O)CSc2nnc(C)s2)c1C | – | 696 nM
26 | Cc1ccc(Sc2c(CO)c(-c3ccccc3)nn2C)cc1 | – | 528 nM
27 | COc1ccc(OC)c(Nc2c3c(nc4ccccc24)CCC3)c1 | – | 1600 nM
28 | Nc1ccc(-c2cc3ccccc3c(=O)o2)cc1 | – | 467 nM
29 | CC(=O)CSc1ccc(-c2nc3cc(C)c(C)cc3[nH]2)cn1 | – | 434 nM
30 | CCCCN=C[C@]12CCC(O)CC1(O)CCC1[C@@H]2CC[C@]2(C)[C@H](C3C=CC(=O)O3)CCC12O (some centres undefined) | – | 243 nM
31 | COc1cc(/C=C2\COC/C(=C\c3cc(OC)c(OC)c(OC)c3)C2=O)cc(OC)c1OC | – | 788 nM
32 | CC(C)c1ccc(-c2nc3ccccc3s2)cc1 | – | < 38 nM
33 | NC(=S)c1cn(C2OC(CO)C(O)C2O)c2ncnc(N)c12 (centres undefined) | – | 1810 nM
34 | Cc1cccc(-n2ncc3c(N(C)C4CCCCC4)ncnc32)c1 | – | 796 nM
35 | COc1ccc(C(=O)O/N=C(\N)c2ccccn2)cc1 | – | 99 nM
36 | CC12CCC(O)CC1CCC1C2CCC2(C)C(C3=CC(=O)OC3)CCC12O (centres undefined) | – | 230 nM
37 | CC1=CC2OC3CC4OC(=O)C=CC=CC(C(C)O)OCC(O)C5(C)OC5C(=O)OCC2(CC1O)C4(C)C31CO1 (centres undefined) | – | 95 nM
38 | Cc1cc(C(=O)COC(=O)c2ccccc2O)c(C)n1Cc1cccs1 | – | 83 nM
39 | C[C@@H]1O[C@@H](O[C@H]2C[C@@H](O)[C@]3(CO)[C@H]4[C@H](O)C[C@]5(C)[C@@H](C6COC(=O)C6)CC[C@]5(O)[C@@H]4CC[C@]3(O)C2)[C@H](O)[C@H](O)[C@H]1O (some centres undefined) | – | 915 nM
40 | CC1=CC(C)CC(C)OC(=O)CC(c2ccc(O)cc2)NC(=O)C(Cc2c(Br)[nH]c3ccccc23)N(C)C(=O)C(C)NC(=O)C(C)C1 (centres undefined) | – | 146 nM
41 | N#CC1=C(N)OC2=C(CCc3ccccc32)C1c1ccccc1 (centres undefined) | – | 945 nM
42 | COC(=O)C12OCC34C(CC5C(C)=C(O)C(=O)CC5(C)C3C(O)C1O)OC(=O)C(OC(=O)C=C(C)C)C24 (centres undefined) | – | < 38 nM
43 | O=C(O)c1cccc(-c2noc(-c3cccc(Cl)c3)n2)c1 | – | 153 nM
44 | Cc1ccc(-c2nc(-c3ccccn3)no2)cc1Cl | – | 351 nM
45 | COc1cc(C2c3cc4c(cc3CC3COC(=O)N32)OCO4)cc(OC)c1OC (centres undefined) | – | 861 nM
46 | c1cc2c(cc1C1=NNC(=NC3CC3)SC1)OCCO2 | – | 189 nM

Row | Compound | activity change, negative = inhibition [1] | AC50 [2]
47 | CCN1CCN(Cc2ccc(NC(=O)c3ccc(C)c(NC(=O)c4cncc(-c5cccs5)c4)c3)cc2C(F)(F)F)CC1 | – | 156 nM
48 | C(=NN1CCCCCC1)c1ccc2ccccc2n1 | – | < 38 nM
49 | COc1cccc(N2CCN(C(=O)c3ccc(CS(=O)c4ccccc4C)o3)CC2)c1 (centres undefined) | – | 1380 nM
50 | COC(=O)c1cc(C(=O)N2CCN(c3cccc(Cl)c3)CC2)cc([N+](=O)[O-])c1 | – | 470 nM
51 | Cc1ccc2nc3sc(C(=O)N4CCOCC4)c(N)c3cc2c1 | – | 275 nM
52 | CC(C)(O)/C=C/C(=O)[C@](C)(O)C1[C@H](O)C[C@@]2(C)C3CC=C4C(C[C@H](O)[C@@H](O)C4(C)C)[C@]3(C)C(=O)C[C@]12C (some centres undefined) | – | 900 nM
53 | C=CCn1c(C)cc(C(=O)CN2C(=O)c3ccccc3S2(=O)=O)c1C | – | 249 nM
54 | CNC(=O)Oc1ccc(-c2cn3cc(C)ccc3n2)cc1 | – | 556 nM
55 | COc1cc(-c2noc(C)c2-c2ccc(N(C)C)nc2)cc(OC)c1OC | – | 358 nM
56 | COCCn1c(C)cc(C(=O)CSc2nnnn2C2CCCC2)c1C | – | 1140 nM
57 | Cc1cc(C2=NNC(=NC3CC3)SC2)c(C)n1-c1ccccc1F | – | < 38 nM
58 | Cc1c(/C=N\NC(=O)C2COc3ccccc3O2)c2ccccc2n1C (centres undefined) | – | 3040 nM
59 | Cc1c(C(=O)OCCOC(C)C)[nH]c2c1C(=O)CC(c1ccco1)C2 (centres undefined) | – | 450 nM
60 | O=C(Nc1nc2cc3c(cc2s1)OCCO3)c1ccco1 | – | 234 nM
61 | CC1CCCN(c2ccc([N+](=O)[O-])cc2C(=O)c2ccccc2)C1 (centres undefined) | – | 1670 nM
62 | COC(=O)Cc1[nH]n(-c2nc3ccccc3s2)c(=O)c1C(C)=Nc1ccc(Cl)cc1 | – | 70 nM
63 | COc1ccccc1-c1nnc2sc(-c3cc4ccccc4o3)nn12 | – | 4300 nM
64 | N/C(=N\OCc1ccc([N+](=O)[O-])cc1)c1ccccn1 | – | 219 nM
65 | CCOc1ccc(S(=O)(=O)Nc2cc(OC)ccc2OC)cc1 | – | 873 nM
66 | NC(=O)c1cc([N+](=O)[O-])ccc1NCc1ccc(N)cc1 | – | 490 nM
67 | C[C@@H]1O[C@@H](O[C@@H]2C=C3CC[C@@H]4C(CC[C@]5(C)[C@@H](c6ccc(=O)oc6)CC[C@]45O)[C@@]3(C)CC2)[C@H](O)[C@H](O)[C@H]1O (some centres undefined) | – | < 38 nM
68 | Cc1ccoc1C(=O)Nc1ccc(CC(=O)O)cc1 | – | 374 nM
69 | COC1C(O)C(C)OC(OC2CCC3(C)C(CCC4C3C(O)CC3(C)C(C5=CC(=O)OC5)CCC43O)C2)C1O (centres undefined) | – | 150 nM

Row | Compound | activity change, negative = inhibition [1] | AC50 [2]
70 | CCN(CCO)c1ccc(N=Nc2cc(C)[nH]n2)cc1 | – | 471 nM
71 | CCC1=Nc2cc(C(=O)NCc3ccco3)ccc2Sc2ccc(C)cc21 | – | 652 nM
72 | C=CC[n+]1c(-c2ccc(C)cc2)csc1Nc1ccc(NC(C)=O)cc1 | – | 3620 nM
73 | O=c1c(Cl)c(N2CCCCC2)cnn1-c1nc2ccccc2[nH]1 | – | 501 nM
74 | Cc1ccc(-c2cc(C(=O)N/N=C/c3c(C)nn(-c4ccccc4)c3C)[nH]n2)cc1 | – | 3000 nM
75 | C/C=C/COC(=O)c1[nH]c2c(c1C)C(=O)CC(c1ccco1)C2 (centres undefined) | – | 660 nM
76 | COc1cc(C(=O)N2CCN(c3cc(Cl)ccc3Cl)CC2)cc(OC)c1OC | – | 1120 nM
77 | Clc1ccc2nc(-c3ccccc3)nc(C(Cl)Cl)c2c1 | – | 885 nM
78 | CN(C)c1ccc(/C=C2\SC(=O)N(CCc3nnc(N)s3)C2=O)cc1 | – | 481 nM
79 | Nc1ccc(Oc2cccc(Oc3ccc(N)cc3)c2)cc1 | – | 587 nM
80 | O=C(CN1C(=O)c2ccccc2S1(=O)=O)c1ccc(Cl)cc1Cl | – | 181 nM
81 | Cc1cccc2cc(C#N)c(SCC(=O)N3CC(=O)Nc4ccccc43)nc12 | – | 960 nM
82 | COC(=O)CCn1nnc(-c2ccc(C(C)C)cc2)n1 | – | 314 nM
83 | COC(=O)c1[nH]c2c(c1C)C(=O)CC(c1cccc(OC)c1)C2 (centres undefined) | – | 715 nM
84 | CCN(CC)c1ccc2cc(-c3nc4ccccc4[nH]3)c(=O)oc2c1 | – | 868 nM
85 | COc1ccc(-c2cc(-c3cccs3)c(C#N)c(SCC(=O)NCc3ccco3)n2)cc1 | – | 1530 nM
86 | CC(=O)OC(C)(C)/C=C/C(=O)[C@](C)(O)C1[C@H](O)C[C@@]2(C)C3CC=C4C(C[C@H](O)C(=O)C4(C)C)[C@]3(C)C(=O)C[C@]12C (some centres undefined) | – | < 38 nM
87 | CCOC(=O)COc1cccc2c(=O)n(CC(=O)NCc3ccc(F)cc3)ccc12 | – | 1540 nM
88 | CCCN1C=CC(=C2C(=O)c3ccccc3C2=O)C=C1 | – | 169 nM
89 | CCc1ccc(/C=C2\SC(=S)N(CCCC(=O)Nc3ccccn3)C2=O)cc1 | -23.5% (inactive) | –
